In PubChem BioAssay (NCI):
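1) Cells in 96-well plates. 2) Compound, 48 h, 5 concentrations. 3) Linear interpolation between surrounding doses. 4) Unreached endpoint = highest concentration. TGI is the concentration that stops growth completely.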

Legend:
Experiment in all cases: DTP human tumour cell line panel, 48 h
[1] = test system: SR leukemia
[2] = test system: HCT-15 colon
[3] = test system: MDA-MB-435
[4] = test system: KM12 colon
[5] = test system: SNB-19 CNS
[6] = test system: UACC-257 melanoma
[7] = test system: MALME-3M melanoma
[8] = test system: RXF 393 renal
[9] = test system: IGROV1 ovarian
[10] = test system: HT29 colon
[11] = test system: T-47D breast
[12] = test system: SW-620 colon
[13] = test system: ACHN renal
[14] = test system: OVCAR-5 ovarian
[15] = test system: SK-OV-3 ovarian
[16] = test system: BT-549 breast
[17] = test system: U251 CNS
[18] = test system: 786-0 renal
[19] = test system: HS 578T breast
[20] = test system: NCI-H226 lung
[21] = test system: M14 melanoma
[22] = test system: HCT-116 colon
[23] = test system: RPMI-8226 leukemia
[24] = test system: DU-145 prostate
[25] = test system: SK-MEL-5 melanoma
[26] = test system: A549 NSCLC
[27] = test system: OVCAR-8 ovarian
[28] = test system: MDA-N
[29] = test system: CCRF-CEM leukemia
[30] = test system: NCI-H522 lung
[31] = test system: NCI-H23 lung
[32] = test system: K-562 leukemia
[33] = test system: CAKI-1 renal
[34] = test system: SF-268 CNS
[35] = test system: MDA-MB-231 breast
[36] = test system: NCI/ADR-RES ovarian
[37] = test system: SK-MEL-2 melanoma
[38] = test system: NCI-H460 lung
[39] = test system: HOP-92 NSCLC
[40] = test system: SF-295 CNS
[41] = test system: MOLT-4 leukemia
[42] = test system: PC-3 prostate
[43] = test system: HL-60(TB) leukemia
[44] = test system: UO-31 renal
[45] = test system: SF-539 CNS
[46] = test system: SN12C renal
[47] = test system: UACC-62 melanoma
[48] = test system: SNB-75 CNS
[49] = test system: MCF7 breast
[50] = test system: EKVX NSCLC
[51] = test system: COLO 205 colon
[52] = test system: OVCAR-4 ovarian
[53] = test system: TK-10 renal
[54] = test system: OVCAR-3 ovarian
[55] = test system: HCC-2998 colon
[56] = test system: LOX IMVI melanoma
[57] = test system: A498 renal
[58] = test system: SK-MEL-28 melanoma
[59] = test system: HOP-62 NSCLC

CC(NC(=O)C(C)C(=O)NCc1ccc(C(F)(F)F)cc1)C(N)=O (centres undefined)
TGI [1]: > 100 µM
TGI [2]: > 100 µM
TGI [3]: > 100 µM
TGI [4]: > 100 µM
TGI [5]: > 100 µM
TGI [6]: > 100 µM
TGI [7]: > 100 µM
TGI [8]: > 100 µM
TGI [9]: > 100 µM
TGI [10]: > 100 µM
TGI [11]: > 100 µM
TGI [12]: > 100 µM
TGI [13]: > 100 µM
TGI [14]: > 100 µM
TGI [15]: > 100 µM
TGI [16]: > 100 µM
TGI [17]: > 100 µM
TGI [18]: > 100 µM
TGI [19]: > 100 µM
TGI [20]: > 100 µM
TGI [21]: > 100 µM
TGI [22]: > 100 µM
TGI [23]: > 100 µM
TGI [24]: > 100 µM
TGI [25]: > 100 µM
TGI [26]: > 100 µM
TGI [27]: > 100 µM
TGI [28]: > 100 µM
TGI [29]: > 100 µM
TGI [30]: > 100 µM
TGI [31]: > 100 µM
TGI [32]: > 100 µM
TGI [33]: > 100 µM
TGI [34]: > 100 µM
TGI [35]: > 100 µM
TGI [36]: > 100 µM
TGI [37]: > 100 µM
TGI [38]: > 100 µM
TGI [39]: > 100 µM
TGI [40]: > 100 µM
TGI [41]: > 100 µM
TGI [42]: > 100 µM
TGI [43]: > 100 µM
TGI [44]: > 100 µM
TGI [45]: > 100 µM
TGI [46]: > 100 µM
TGI [47]: > 100 µM
TGI [48]: > 100 µM
TGI [49]: > 100 µM
TGI [50]: > 100 µM
TGI [51]: > 100 µM

O=[N+]([O-])c1cccc2nc3ccccc3c(NCCC[N+]3([O-])CCCCC3)c12
TGI [2]: > 100 µM
TGI [52]: 1.15 µM
TGI [3]: 0.44 µM
TGI [4]: 2.07 µM
TGI [5]: 9.18 µM
TGI [53]: 10.9 µM
TGI [54]: 0.852 µM
TGI [6]: 0.55 µM
TGI [7]: 0.352 µM
TGI [8]: 2 µM
TGI [9]: 6.33 µM
TGI [10]: 6.37 µM
TGI [11]: 4.9 µM
TGI [55]: 0.272 µM
TGI [12]: > 34.8 µM
TGI [13]: 47.5 µM
TGI [14]: 2.36 µM
TGI [15]: 4.58 µM
TGI [16]: 1.53 µM
TGI [17]: 1.24 µM
TGI [18]: 3.34 µM
TGI [19]: 4.02 µM
TGI [20]: 1.54 µM
TGI [21]: 2.95 µM
TGI [22]: 1.04 µM
TGI [23]: 10.5 µM
TGI [24]: 1.9 µM
TGI [25]: 1.35 µM
TGI [56]: 2.4 µM
TGI [26]: 3.92 µM
TGI [27]: 13.6 µM
TGI [28]: 0.56 µM
TGI [29]: > 36.5 µM
TGI [30]: 0.345 µM
TGI [57]: 2.47 µM
TGI [31]: 0.622 µM
TGI [32]: > 100 µM
TGI [33]: > 100 µM
TGI [34]: 2.22 µM
TGI [35]: 1.16 µM
TGI [58]: 5.11 µM
TGI [36]: > 100 µM
TGI [37]: 0.354 µM
TGI [38]: 1.18 µM
TGI [39]: 0.746 µM
TGI [40]: 12.6 µM
TGI [41]: > 100 µM
TGI [42]: 0.649 µM
TGI [43]: 8.44 µM
TGI [44]: > 58.6 µM
TGI [45]: 2.16 µM
TGI [46]: 1.55 µM
TGI [47]: 0.805 µM
TGI [59]: 3.55 µM
TGI [48]: 1.4 µM
TGI [49]: 1.99 µM
TGI [50]: 2.94 µM
TGI [51]: 0.317 µM
